Laboratory results from article PMC7560015, “Indoline-6-Sulfonamide Inhibitors of the Bacterial Enzyme DapE” (Antibiotics, 2020).
Read-outs that look alike come from different tables or passages of the source.

Legend:
HiDapE = target: T1, HiDapE (Haemophilus influenzae, UniProt P44514); assay: ninhydrin-based DapE inhibition assay (N6-methyl-L,L-SDAP substrate); format: biochemical; conditions: for IC50: from three or four % inhibition points, N-Me-SDAP substrate
T1 construct: His6 (cleaved yes); made in house
T1 sequence (P44514 whole entry): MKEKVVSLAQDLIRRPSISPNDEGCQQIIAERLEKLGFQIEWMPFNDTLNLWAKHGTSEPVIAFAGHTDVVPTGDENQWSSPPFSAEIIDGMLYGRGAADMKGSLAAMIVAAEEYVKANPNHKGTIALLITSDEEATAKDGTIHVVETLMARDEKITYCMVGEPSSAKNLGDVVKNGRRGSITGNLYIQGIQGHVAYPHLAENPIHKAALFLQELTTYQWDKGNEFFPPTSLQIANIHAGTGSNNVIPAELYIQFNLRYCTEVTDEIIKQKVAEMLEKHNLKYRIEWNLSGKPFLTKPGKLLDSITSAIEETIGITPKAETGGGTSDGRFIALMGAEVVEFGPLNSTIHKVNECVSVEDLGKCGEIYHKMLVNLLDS
Description: To conveniently measure the inhibitory potency of test compounds against DapE, we recently developed a ninhydrin-based assay employing the unnatural but well-tolerated substrate N^6-methyl-L,L-SDAP (1b). Enzymatic cleavage of 1b affords primary amine product 3b (Figure 1), which can be quantified spectrophotometrically following treatment with ninhydrin. Importantly, this assay avoids the significant background signal that would be produced by the reaction of the primary amine in native substrate 1a with ninhydrin. […]
DapE inhibition was measured according to the method previously described. In brief, the enzymatic activity of DapE was measured in triplicate at 570 nm by the Ruhemann’s purple complex formed through the reaction of the exposed primary amine and ninhydrin. To 175 µL of 50 mM HEPES (4-(2-hydroxyethyl)-1-piperazineethanesulfonic acid) buffer at pH 7.5 with 5 µL of 1µM DapE stock solution at 30 °C, 20 µL of 10 mM monomethyl SDAP ((2S,6S)-2-(3-carboxypropanamido)-6-(methylamino)heptanedioic acid) TFA salt was added. The reaction was allowed to proceed for 10 min and quenched by heating at 100 °C for 1 min and subsequently cooling on ice for 1 min. To the cooled reaction, 2% ninhydrin reagent in 100% DMSO (final volume 300 µL) was added and subsequently heated to 80 °C for 15 min. This was quenched by placing in ice water for 2 min, and the absorbance of an 80 µL aliquot was read at 570 nm via a microplate reader. These reactions were set as 100% standard enzyme activity of DapE.

[1] = tested on: DapE from Haemophilus influenza (HiDapE); conditions: competitive inhibitor of HiDapE; cited from earlier work
[2] = solubility at assay concentration; format: physicochemical; conditions: at 200 μM; insol. = insoluble
Description: The compounds synthesized along with their DapE inhibitory potencies measured using the N-Me-SDAP substrate are summarized in Table 1. We kept the N-acetyl group as well as the 5-halogen moiety constant in this first series while varying the sulfonamide N-substituent. […] Several derivatives had poor solubility, limiting the ability to test inhibition at higher concentrations.

DapE = DapE (Haemophilus influenzae, UniProt P44514); assay: high-throughput screen of ~33,000 compounds for DapE inhibitors; format: biochemical; conditions: read-out: % inhibition of DapE in high-throughput screen
Sequence of DapE (P44514 whole entry): as above
Description: We were pleased that these two indoline hit structures provided mutual confirmation of one another. Furthermore, indolines are a privileged scaffold in medicinal chemistry, as there are several examples of indoline-containing drugs approved for a variety of treatments: advanced or transitional cell carcinoma of the urothelial tract (vinflunine), glaucoma and severe anticholinergic toxicity (physostigmine), and schizophrenia in adults (lumateperone), or are under investigation, as for benign prostatic hyperplasia (BPH). Furthermore, sulfonamides are pervasive in agrochemicals and in pharmaceuticals across therapeutic areas, and primary sulfonamides have recently been leveraged as versatile intermediates.

SMILES	melting point [°C]	IC50 (HiDapE) [µM]	other results
CC(=O)N1CCc2cc(Br)c(S(=O)(=O)NC3CCCCC3)cc21 [9b, 1-Acetyl-5-Bromo-N-Cyclohexylindoline-6-Sulfonamide]	226 to 228	162	
CC(=O)N1CCc2cc(Br)c(S(=O)(=O)N3CCc4ccccc43)cc21 [9k, 1-Acetyl-5-Bromo-6-(Indolin-1-Sulfonyl) Indoline]	215 to 218	86	
COCCN(CCOC)S(=O)(=O)c1cc2c(cc1Br)CCN2C(C)=O [9m, 1-Acetyl-5-Bromo-N,N-bis(2-Methoxyethyl)Indoline-6-Sulfonamide]	110 to 111		DapE inhibitory potency in words (HiDapE): significantly less potent; inhibition at 100 µM (HiDapE): 26%
CC(=O)N1CCc2cc(Br)c(S(=O)(=O)N3CCCC3)cc21 [9j, 1-Acetyl-5-Bromo-6-(Pyrrolidin-1-Sulfonyl) Indoline]	238 to 240	97	
C[C@H](CS)C(=O)N1CCC[C@H]1C(=O)O [captopril]			IC50 [1]: 3.3 µM
CCN(CC)S(=O)(=O)c1cc2c(cc1Br)CCN2C(C)=O [9n, 1-Acetyl-5-Bromo-N,N-Diethylindoline-6-Sulfonamide]	195 to 196	99	
COC(=O)[C@@H](NS(=O)(=O)c1cc2c(cc1Br)CCN2C(C)=O)C(C)C [9g, Methyl ((1-Acetyl-5-Bromoindolin-6-yl)Sulfonyl)Valinate]	190.9 to 191.7	82	
CCCN(CCC)S(=O)(=O)c1cc2c(cc1Br)CCN2C(C)=O [9l, 1-Acetyl-5-Bromo-N,N-Dipropylindoline-6-Sulfonamide]	118 to 120		solubility in the DapE assay [2]: insol.; DapE inhibitory potency in words (HiDapE): significantly less potent; inhibition at 20 µM (HiDapE): 5%
COCCN(CCOC)S(=O)(=O)c1cc2c(cc1Cl)CCN2C(C)=O [10f, 1-Acetyl-5-Chloro-N,N-bis(2-Methoxyethyl)Indoline-6-Sulfonamide]	93.2 to 94.4	> 200	
CC(=O)N1CCc2cc(Br)c(S(=O)(=O)NCC(C)C)cc21 [9a, 1-Acetyl-5-Bromo-N-Isobutylindoline-6-Sulfonamide]			inhibition at 200 µM (HiDapE): 20%
CC(=O)N1CCc2cc(Br)c(S(=O)(=O)N3CC(C)CC(C)C3)cc21 (stereo not shown) [compound 5]			inhibition at 12 µM (DapE): > 20%
CC(=O)N1CCc2cc(Br)c(S(=O)(=O)NCc3ccccc3)cc21 [9c, 1-Acetyl-N-Benzyl-5-Bromoindoline-6-Sulfonamide]	205 to 208		inhibition at 200 µM (HiDapE): 56%
CC(=O)N1CCc2cc(Br)c(S(=O)(=O)NCCC(C)C)cc21 [compound 4, 1-Acetyl-5-Bromo-N-Isopentylindoline-6-Sulfonamide]	190 to 191	> 200	inhibition at 12 µM (DapE; at 12 μM, arbitrary hit cutoff): > 20%; inhibition at 200 µM (HiDapE; at 200 μM, single concentration, read-out: % Inhibition): 42%
CCCN(CCC)S(=O)(=O)c1cc2c(cc1Cl)CCN2C(C)=O [10e, 1-Acetyl-5-Chloro-N,N-Dipropylindoline-6-Sulfonamide]		88	
CC(=O)N1CCc2cc(Br)c(S(=O)(=O)NC(C)(C)C)cc21 [9d, 1-Acetyl-5-Bromo-N-(Tert-Butyl)Indoline-6-Sulfonamide]			inhibition at 100 µM (HiDapE): 39%
COC(=O)CCNS(=O)(=O)c1cc2c(cc1Br)CCN2C(C)=O [9f, Methyl 3-((1-Acetyl-5-Bromoindoline)-6-Sulfonamido)Propanoate]	190 to 193	118	
COC(=O)CNS(=O)(=O)c1cc2c(cc1Br)CCN2C(C)=O [9e, 1-Acetyl-5-Bromoindolin-6-(Sulfonyl Glycine Methyl Ester)]	179 to 182		DapE inhibitory potency in words (HiDapE): nearly inactive; inhibition at 200 µM (HiDapE): 17%
CC(=O)N1CCc2cc(Cl)c(S(=O)(=O)NCCC(C)C)cc21 [10a, 1-Acetyl-5-Chloro-N-Isopentylindoline-6-Sulfonamide]		54	fold more potent than corresponding 5-bromo derivative (HiDapE; 10a relative to 4): ~ 5 ×
CC(=O)N1CCc2cc(Cl)c(S(=O)(=O)N3CCCC3)cc21 [10d, 1-(5-Chloro-6-(Pyrrolidin-1-Ylsulfonyl)Indolin-1-yl)ethan-1-One]		172	
CC(=O)N1CCc2cc(Br)c(S(=O)(=O)N3CCCCC3)cc21 [9i, 1-Acetyl-5-Bromo-6-(Piperidin-1-Sulfonyl) Indoline]	212 to 214	133	
CC(=O)N1CCc2cc(Cl)c(S(=O)(=O)N3CCCCC3)cc21 [10c, 1-(5-Chloro-6-(Piperidin-1-Ylsulfonyl)Indolin-1-yl)Ethan-1-One]	199.7 to 201.4	44	fold more potent than corresponding 5-bromo derivative (HiDapE; 10c relative to 9i): ~ 3 ×
COC(=O)[C@H](Cc1ccccc1)NS(=O)(=O)c1cc2c(cc1Br)CCN2C(C)=O [9h, Methyl ((1-Acetyl-5-Bromoindolin-6-yl)Sulfonyl)-L-Phenylalaninate]			inhibition at 200 µM (HiDapE): 61%
CC(=O)N1CCc2cc(Cl)c(S(=O)(=O)NC3CCCCC3)cc21 [10b, 1-Acetyl-5-Chloro-N-Cyclohexylindoline-6-Sulfonamide]	230 to 230.5		inhibition at 200 µM (HiDapE): 58%
